Laboratory results taken from patent US20070048360A1, “Pharmaceutical compositions with melting point depressant agents and method of making same” (priority 2005, published 2007).
Like-named read-outs stand apart in the source and are kept apart here.

Columns and labels:
[1] = Aqueous blending of bulk powdered CFI and active drug, visual and microscopic check; format: physicochemical
[2] = cited from earlier work
[3] = oral; cited from earlier work

## COc1ccccc1OCCNCC(O)COc1cccc2[nH]c3ccccc3c12 (stereo not drawn) [CAR, Carvedilol]
[1]; 30% ethanol
  aspect of composition API:PES 1:1 in ethanol/purified water: stable oil droplets
Drug 1% w/w
  ethanol content of hydro-alcoholic mixture needed to solubilize the drug: at least 80 % by weight of the total mixture

## CCN(CC)CC#CCOC(=O)C(O)(c1ccccc1)C1CCCCC1 (stereo not drawn) [OXY, oxybutynin]
[1]; 30% ethanol
  aspect of composition API:PES 1:1 in ethanol/purified water: small transparent droplets easily re-suspended

## CC(=O)CCc1ccc2c(c1)OCO2 [4-(1,3-benzodioxol-5-yl)butan-2-one]
[2]
  Log P: Log P: 1.15

## CN1C2CCCC1CC(NC(=O)c1nn(C)c3ccccc13)C2 (stereo not drawn) [GRA, Granisetron]
[1]; 30% ethanol
  aspect of composition API:PES 1:1 in ethanol/purified water: stable oil droplets
Drug 0.5% w/w
  ethanol content of hydro-alcoholic mixture needed to solubilize the drug: at least 40 % by weight of the total mixture

## O=C(OCCc1ccccc1)c1ccccc1O [Phenyl ethyl salicylate]
[2]
  Log P: Log P: 4.31

## NCCCC(O)(P(=O)(O)O)P(=O)(O)O [sodium alendronate]
[3]
  fraction of the drug absorbed when administered orally: about 0.6%

## Clc1cccc(Cl)c1N=C1NCCN1 [CLO, clonidine]
[1]; 5% ethanol
  aspect of composition API:PES 1:1 in ethanol/purified water: stable oil droplets
[1]; 10% ethanol
  aspect of composition API:PES 1:1 in ethanol/purified water: stable oil droplets
Drug 0.5% w/w
  ethanol content of hydro-alcoholic mixture needed to solubilize the drug: at least 50 % by weight of the total mixture

## C[C@]12CC[C@H]3[C@@H](CCC4=CC(=O)CC[C@@]43C)[C@@H]1CC[C@@H]2O [TES, Testosterone]
[1]
  aspect of composition API:PES 1:1 in ethanol/purified water: stable oil droplets

## CC(C)(C)C1CCCCC1O (stereo not drawn) [Ortho tertiary butyl cyclohexanol]
[2]
  Log P: Log P: 3.3-3.4

## CCCN(CCC)CCc1cccc2c1CC(=O)N2 [ROP, Ropinirole]
[1]; 15% ethanol
  aspect of composition API:PES 1:1 in ethanol/purified water: stable oil droplets
Drug 1% w/w
  ethanol content of hydro-alcoholic mixture needed to solubilize the drug: at least 40 % by weight of the total mixture

## CC(C)Cc1ccc(C(C)C(=O)O)cc1 (stereo not drawn) [Ibuprofen, ibuprofen]
Drug 1% w/w
  ethanol content of hydro-alcoholic mixture needed to solubilize the drug: at least 50 % by weight of the total mixture

## CCN(CC)CC(=O)Nc1c(C)cccc1C [Lidocaine, lidocaine]
[1]; lidocaine 2.50% w/w and PES 2.50% w/w in water, ambient temperature in the dark
  storage period over which aspect (transparent droplets, no crystallization) was maintained: > 13 month

## c1ccc2c(c1)CC1COCOC21 (stereo not drawn) [Indeno-m-dioxin tetrahydro]
[2]
  Log P: Log P: 1.33
